In brackets after ≈: the same amount, converted by molar mass.
Assays:
HT-29 [1] = assay: Antiproliferative activity against human HT-29 cells assessed as inhibition of cell growth under normoxia condition by SRB assay; type: functional, cell-based
SCC-7 [2] = assay: Anticlonogenic activity against mouse SCC-7 cells assessed as inhibition of colony formation under hypoxic condition by clonogenic survival assay; type: functional
SCC-7 [3] = assay: Anticlonogenic activity against mouse SCC-7 cells assessed as inhibition of colony formation under aerobic condition by clonogenic survival assay; type: functional
HT-29 [4] = assay: Antiproliferative activity against human HT-29 cells assessed as inhibition of cell growth under hypoxia condition by SRB assay; type: functional, cell-based
[5] = target: Vascular endothelial growth factor receptor 2 (Homo sapiens, UniProt P35968); assay: Inhibition of VEGFR-2 (unknown origin)
Chain of Vascular endothelial growth factor receptor 2 (P35968 whole entry): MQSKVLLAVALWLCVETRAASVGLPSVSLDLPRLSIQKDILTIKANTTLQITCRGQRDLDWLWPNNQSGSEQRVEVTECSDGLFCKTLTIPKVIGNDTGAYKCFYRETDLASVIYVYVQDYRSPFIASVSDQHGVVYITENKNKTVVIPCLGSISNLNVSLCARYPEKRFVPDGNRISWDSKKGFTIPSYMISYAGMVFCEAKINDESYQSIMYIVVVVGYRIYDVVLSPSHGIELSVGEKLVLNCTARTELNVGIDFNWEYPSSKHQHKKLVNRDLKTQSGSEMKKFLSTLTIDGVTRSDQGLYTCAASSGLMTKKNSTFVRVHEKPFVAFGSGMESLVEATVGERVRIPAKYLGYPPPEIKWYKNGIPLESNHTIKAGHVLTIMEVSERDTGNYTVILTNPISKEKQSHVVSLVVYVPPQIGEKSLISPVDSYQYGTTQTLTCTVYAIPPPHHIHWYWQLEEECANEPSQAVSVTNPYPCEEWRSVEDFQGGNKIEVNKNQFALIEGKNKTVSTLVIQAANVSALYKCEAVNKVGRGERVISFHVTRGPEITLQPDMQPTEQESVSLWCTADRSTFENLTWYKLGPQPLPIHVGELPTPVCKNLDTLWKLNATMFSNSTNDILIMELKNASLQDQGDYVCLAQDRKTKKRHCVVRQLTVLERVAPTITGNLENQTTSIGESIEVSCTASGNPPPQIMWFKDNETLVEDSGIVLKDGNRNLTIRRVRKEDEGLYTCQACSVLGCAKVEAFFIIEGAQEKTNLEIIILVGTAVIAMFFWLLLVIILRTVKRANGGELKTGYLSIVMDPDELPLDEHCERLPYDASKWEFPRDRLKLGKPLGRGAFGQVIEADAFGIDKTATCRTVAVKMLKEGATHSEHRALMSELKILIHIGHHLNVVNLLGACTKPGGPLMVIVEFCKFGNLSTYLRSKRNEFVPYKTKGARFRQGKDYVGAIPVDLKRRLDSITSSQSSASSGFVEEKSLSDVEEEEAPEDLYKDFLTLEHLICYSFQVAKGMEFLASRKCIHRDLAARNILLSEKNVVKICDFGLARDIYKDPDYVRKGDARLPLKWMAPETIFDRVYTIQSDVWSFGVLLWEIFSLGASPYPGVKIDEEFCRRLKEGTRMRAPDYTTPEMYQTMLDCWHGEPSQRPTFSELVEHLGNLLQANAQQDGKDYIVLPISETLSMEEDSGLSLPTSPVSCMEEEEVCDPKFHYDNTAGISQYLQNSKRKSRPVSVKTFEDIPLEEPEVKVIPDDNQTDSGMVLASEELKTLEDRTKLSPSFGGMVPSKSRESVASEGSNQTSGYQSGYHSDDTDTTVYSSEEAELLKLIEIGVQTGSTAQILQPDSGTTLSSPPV

[6] = target: Tyrosine-protein kinase SYK (Homo sapiens, UniProt P43405); assay: Inhibition of human SYK using 5-Fluo-Ahx-GAPDYENLQELNKK-Amid as substrate in presence of ATP by microfluidic mobility shift assay
MCF7 [7] = assay: Antiproliferative activity against human MCF7 cells assessed as inhibition of cell growth measured after 72 hrs by fluorescence based assay; type: functional; details: MCF7, 72 h
K562 = assay: Antiproliferative activity against human K562 cells assessed as inhibition of cell growth measured after 72 hrs by fluorescence based assay; type: functional; details: K562, 72 h
[8] = target: Cyclin-dependent kinase 2/cyclin E1 (Homo sapiens, UniProt P24941); assay: Inhibition of CDK2/cyclin E1 (unknown origin) expressed in Sf9 cells
[9] = target: T1, Tyrosine-protein kinase JAK3 (Homo sapiens, UniProt P52333); assay: Inhibition of JAK3 (unknown origin)
T1 sequence (P52333 whole entry): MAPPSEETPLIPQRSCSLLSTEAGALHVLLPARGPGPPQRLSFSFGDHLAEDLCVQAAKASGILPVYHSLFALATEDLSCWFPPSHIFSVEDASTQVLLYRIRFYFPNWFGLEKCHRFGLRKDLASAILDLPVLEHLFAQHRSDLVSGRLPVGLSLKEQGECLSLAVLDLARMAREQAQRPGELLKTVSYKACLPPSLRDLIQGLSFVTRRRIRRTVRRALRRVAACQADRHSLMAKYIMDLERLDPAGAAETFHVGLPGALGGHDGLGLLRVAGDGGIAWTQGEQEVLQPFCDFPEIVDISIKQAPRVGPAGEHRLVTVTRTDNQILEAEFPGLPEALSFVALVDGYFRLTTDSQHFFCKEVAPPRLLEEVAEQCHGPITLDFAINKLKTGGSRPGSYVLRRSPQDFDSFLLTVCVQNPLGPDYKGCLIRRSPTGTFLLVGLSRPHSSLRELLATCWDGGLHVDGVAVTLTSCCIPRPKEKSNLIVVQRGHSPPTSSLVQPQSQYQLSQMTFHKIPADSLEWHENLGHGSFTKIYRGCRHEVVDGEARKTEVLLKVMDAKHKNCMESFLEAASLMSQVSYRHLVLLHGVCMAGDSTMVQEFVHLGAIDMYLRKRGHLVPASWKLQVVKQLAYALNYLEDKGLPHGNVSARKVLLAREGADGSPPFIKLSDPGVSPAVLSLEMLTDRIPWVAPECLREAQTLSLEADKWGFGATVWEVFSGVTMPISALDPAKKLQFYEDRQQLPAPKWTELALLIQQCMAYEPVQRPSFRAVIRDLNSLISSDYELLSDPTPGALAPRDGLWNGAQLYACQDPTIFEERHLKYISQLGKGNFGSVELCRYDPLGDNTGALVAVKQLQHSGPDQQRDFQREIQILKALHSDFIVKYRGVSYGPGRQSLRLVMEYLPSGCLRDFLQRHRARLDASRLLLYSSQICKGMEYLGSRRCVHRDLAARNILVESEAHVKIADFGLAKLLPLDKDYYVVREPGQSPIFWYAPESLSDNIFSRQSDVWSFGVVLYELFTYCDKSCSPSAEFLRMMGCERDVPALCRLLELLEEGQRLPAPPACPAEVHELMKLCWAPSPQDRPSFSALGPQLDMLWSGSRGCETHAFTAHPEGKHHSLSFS

[10] = target: Tyrosine-protein kinase JAK2 (Homo sapiens, UniProt O60674); assay: Inhibition of JAK2 (unknown origin)
Chain of Tyrosine-protein kinase JAK2 (O60674 whole entry): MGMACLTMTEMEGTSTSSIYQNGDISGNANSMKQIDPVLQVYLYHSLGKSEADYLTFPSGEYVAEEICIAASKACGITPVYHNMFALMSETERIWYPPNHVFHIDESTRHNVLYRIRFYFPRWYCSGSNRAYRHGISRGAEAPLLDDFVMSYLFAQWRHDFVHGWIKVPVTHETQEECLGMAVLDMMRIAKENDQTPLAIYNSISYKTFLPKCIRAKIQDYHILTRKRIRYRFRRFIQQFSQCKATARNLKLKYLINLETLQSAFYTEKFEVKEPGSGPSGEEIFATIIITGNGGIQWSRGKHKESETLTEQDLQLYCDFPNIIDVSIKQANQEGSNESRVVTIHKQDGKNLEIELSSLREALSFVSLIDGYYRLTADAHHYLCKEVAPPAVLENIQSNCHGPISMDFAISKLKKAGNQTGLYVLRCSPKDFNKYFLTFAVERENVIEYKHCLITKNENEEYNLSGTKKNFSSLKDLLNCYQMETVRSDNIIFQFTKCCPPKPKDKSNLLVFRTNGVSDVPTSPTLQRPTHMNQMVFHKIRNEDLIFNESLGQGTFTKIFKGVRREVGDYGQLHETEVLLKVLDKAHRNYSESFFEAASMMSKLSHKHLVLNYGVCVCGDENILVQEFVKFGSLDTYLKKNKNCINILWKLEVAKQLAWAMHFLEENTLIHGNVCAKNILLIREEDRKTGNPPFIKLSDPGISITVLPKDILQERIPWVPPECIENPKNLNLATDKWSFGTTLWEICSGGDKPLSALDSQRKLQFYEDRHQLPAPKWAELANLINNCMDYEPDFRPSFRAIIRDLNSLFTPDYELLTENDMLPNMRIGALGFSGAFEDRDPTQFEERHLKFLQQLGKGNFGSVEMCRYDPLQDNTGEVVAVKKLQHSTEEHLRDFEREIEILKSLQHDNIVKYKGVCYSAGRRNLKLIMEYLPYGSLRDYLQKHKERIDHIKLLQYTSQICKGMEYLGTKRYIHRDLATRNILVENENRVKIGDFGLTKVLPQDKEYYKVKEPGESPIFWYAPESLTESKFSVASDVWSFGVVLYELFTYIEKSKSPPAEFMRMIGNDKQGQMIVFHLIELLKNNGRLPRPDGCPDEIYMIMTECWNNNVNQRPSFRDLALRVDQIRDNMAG

MCF7 [11] = assay: Antiproliferative activity against human MCF7 cells assessed as inhibition of cell growth; type: functional, cell-based
HCT-116 = assay: Antiproliferative activity against human HCT-116 cells assessed as inhibition of cell growth; type: functional, cell-based

| Structure (SMILES) | IC50 (HT-29 [1]) [nM] | C10 (SCC-7 [2]) [µM] | C10 (SCC-7 [3]) [µM] | IC50 (HT-29 [4]) [nM] | other results |
| --- | --- | --- | --- | --- | --- |
| O=C(NCCNCCNc1n[n+]([O-])c2ccccc2[n+]1[O-])c1cccc2cc3ccccc3nc12 | 600 | 0.18 | 6.4 | 16 |  |
| Cc1cccc2nc3cccc(C(=O)NCCCN(C)CCCNc4n[n+]([O-])c5ccccc5[n+]4[O-])c3nc12 | 600 | 0.18 | 6.4 | 16 |  |
| CN(CCCNC(=O)c1cccc2ccc(-c3ccncc3)nc12)CCCNc1n[n+]([O-])c2ccccc2[n+]1[O-] | 600 | 0.18 | 6.4 | 16 |  |
| O=C(NCCOCCNc1n[n+]([O-])c2ccccc2[n+]1[O-])c1cccc2cc3ccccc3nc12 | 600 | 0.18 | 6.4 | 16 |  |
| CN(CCNC(=O)c1cccc2cc3ccccc3nc12)CCNc1n[n+]([O-])c2ccccc2[n+]1[O-] | 600 | 0.18 | 6.4 | 16 |  |
| CN(CCCNC(=O)c1cccc2cccnc12)CCCNc1n[n+]([O-])c2ccccc2[n+]1[O-] | 600 | 0.18 | 6.4 | 16 |  |
| CN(CCCNC(=O)c1cccc2nc3ccccc3nc12)CCCNc1n[n+]([O-])c2ccccc2[n+]1[O-] | 600 | 0.18 | 6.4 | 16 |  |
| Cc1ccc(Nc2ncnn3c(C)ccc23)cc1O |  |  |  |  | IC50 [5]: 29400 nM |
| NC(=O)c1nnc(N[C@@H]2CCCC[C@@H]2N)nc1Nc1cccc2[nH]ccc12 |  |  |  |  | IC50 [6]: 0.8 nM |
| Cc1cccc2cc3cccc(C(=O)NCCCN(C)CCCNc4n[n+]([O-])c5ccccc5[n+]4[O-])c3nc12 | 600 | 0.18 | 6.4 | 16 |  |
| CN(CCCNC(=O)c1cccc2cc3ccccc3nc12)CCCNc1n[n+]([O-])c2ccccc2[n+]1[O-] | 600 | 0.18 | 6.4 | 16 |  |
| O=C(NCCCNCCCNc1n[n+]([O-])c2ccccc2[n+]1[O-])c1cccc2cc3ccccc3nc12 | 600 | 0.18 | 6.4 | 16 |  |
| CCN(CC)c1nc(=O)n(-c2ccccc2)nc1-c1ccccc1O |  |  |  |  | IC50 (MCF7 [7]): 3500 nM; IC50 (K562): 3500 nM |
| Oc1ccc(-n2nc(-c3cc(O)c(O)c(O)c3)c3nc(-c4ccc(Cl)cc4)nnc32)cc1 |  |  |  |  | IC50 [8]: > 20000 nM |
| Oc1cc(-c2nn(-c3ccc(Cl)cc3)c3nnc(-c4ccc(Cl)cc4)nc23)cc(O)c1O |  |  |  |  | IC50 [8]: > 20000 nM |
| Oc1ccc(-n2nc(-c3cc(O)c(O)c(O)c3)c3nc(-c4ccccc4)nnc32)cc1 |  |  |  |  | IC50 [8]: 14100 nM |
| NC(CCCCNc1nc(=O)n(-c2ccccc2)nc1-c1ccccc1O)C(=O)O (stereo not given) |  |  |  |  | IC50 (MCF7 [7]): 3500 nM; IC50 (K562): 3500 nM |
| CC(C)C(Nc1cnnc(-c2c[nH]c3ncc(F)cc23)n1)C(=O)NCC(C)(C)C (stereo not given) |  |  |  |  | IC50 [9]: ≤ 10 nM; IC50 [10]: ≤ 10 nM |
| Nc1nc(=O)n(-c2ccccc2)nc1-c1ccccc1O |  |  |  |  | IC50 (MCF7 [7]): 3500 nM; IC50 (K562): 3500 nM |
| NCCCCNc1nc(=O)n(-c2ccccc2)nc1-c1ccccc1O |  |  |  |  | IC50 (MCF7 [7]): 3500 nM; IC50 (K562): 3500 nM |
| O=c1nc(N2CCCCC2)c(-c2ccccc2O)nn1-c1ccccc1 |  |  |  |  | IC50 (MCF7 [7]): 3500 nM; IC50 (K562): 3500 nM |
| COc1cc(Cc2nc(-c3ccccc3)nn3cnnc23)cc(OC)c1OC |  |  |  |  | IC50 (MCF7 [11]): 0.74 µg/mL (≈ 1.96 µM); IC50 (HCT-116): 0.74 µg/mL (≈ 1.96 µM) |
| Oc1ccccc1-n1nc(-c2cc(O)c(O)c(O)c2)c2nc(-c3ccc(Cl)cc3)nnc21 |  |  |  |  | IC50 [8]: > 20000 nM |
| CC(C)C(Nc1cnnc(-c2c[nH]c3ncc(Cl)cc23)n1)C(=O)NCC(C)(C)C (stereo not given) |  |  |  |  | IC50 [9]: ≤ 10 nM; IC50 [10]: ≤ 10 nM |
| CC(C)(C)CNC(=O)C(C)(C)Nc1cnnc(-c2c[nH]c3ncc(F)cc23)n1 |  |  |  |  | IC50 [9]: ≤ 10 nM; IC50 [10]: ≤ 10 nM |
| CC(C)(C)CNC(=O)C(C)(C)Nc1cnnc(-c2c[nH]c3ncc(C#N)cc23)n1 |  |  |  |  | IC50 [9]: ≤ 10 nM; IC50 [10]: ≤ 10 nM |
| CC(C)C(Nc1cnnc(-c2c[nH]c3ncc(C(N)=O)cc23)n1)C(=O)NCC(C)(C)C (stereo not given) |  |  |  |  | IC50 [9]: ≤ 10 nM; IC50 [10]: ≤ 10 nM |
| CNc1nc(=O)n(-c2ccccc2)nc1-c1ccccc1O |  |  |  |  | IC50 (MCF7 [7]): 3500 nM; IC50 (K562): 3500 nM |

From ChEMBL document CHEMBL5260813, “An overview on the recent developments of 1,2,4-triazine derivatives as anticancer compounds” (Eur J Med Chem, 2017)
